Data: patent US20070099927A1, “Aminoalkyl-pyrazinones and-pyridones as thrombin inhibitors” (priority 2003, published 2007)

Target: thrombin (Homo sapiens, UniProt P00734)
Experiment: Ki determinations thrombin, fluorogenic substrate Tosyl-GPR-AMC
Format: biochemical
Settings: 20° C., thrombin 100 pM, Tosyl-GPR-AMC 20 μM, HBS pH 7.4; Ki class
Description: The Ki determinations were carried out at 20° C. with the fluorogenic substrate Tosyl-GPR-AMC (Bachem, Heidelberg, Germany; λexc=370 nm, λem=450 nm) at a thrombin concentration of 100 pM in HBS pH 7.4. The substrate was added to a final concentration of 20 μM in a total assay volume of 100 μl. The enzymatic reaction was started by addition of substrate. The emission at 450 nm was monitored in 1 minute intervals for 10 minutes using a polarstar reader (BMG Laboratories, Offenburg, Germany). Initial velocities of the control and the inhibited reactions (vo and vi) were estimated in FU/min at different compound concentrations. The inhibition constants were calculated using the Michaelis-Menten equation for competitive inhibition.

Row | SMILES | Ki [µM]
1 | Cc1cnc(NCC(F)(F)C2CCCCN2)c(=O)n1CCNCc1n[nH]c2ccc(Cl)cc12 (single isomer, unassigned) [85 (E1)] | < 0.005
2 | Cc1cnc(NCCC2CCCCN2C)c(=O)n1CCNCc1n[nH]c2ccc(Cl)cc12 (single isomer, unassigned) [95 (E1), 1-{2-[(5-Chloro-1H-indazol-3-ylmethyl)-amino]-ethyl}-6-methyl-3-[2-(1-methyl-piperidin-2-yl)-ethylamino]-1H-pyrazin-2-one] | < 0.005
3 | Cc1cnc(NCCC2CCCCN2C)c(=O)n1CCNCc1n[nH]c2ccc(Cl)cc12 (single isomer, unassigned) [95 (E2), 1-{2-[(5-Chloro-1H-indazol-3-ylmethyl)-amino]-ethyl}-6-methyl-3-[2-(1-methyl-piperidin-2-yl)-ethylamino]-1H-pyrazin-2-one] | < 0.005
4 | O=c1c(NCCC2CCCCN2)ncc(Cl)n1CCNCc1n[nH]c2ccc(Cl)cc12 (single isomer, unassigned) [101 (E2), 6-Chloro-1-{2-[(5-chloro-1H-indazol-3-ylmethyl)-amino]-ethyl}-3-(2-piperidin-2-yl-ethylamino)-1H-pyrazin-2-one] | < 0.005
5 | Cc1nc(N)ccc1CNCCn1c(Cl)cnc(NCC(F)(F)c2ccccn2)c1=O [Example 52] | 0.03 to 0.2
6 | Cc1cnc(NCCNc2ccccn2)c(=O)n1CCNCc1cccc(Cl)c1 [Example 56] | 0.03 to 0.2
7 | Cc1cnc(NC(Cc2ccccc2)C(N)=O)c(=O)n1CCNCCc1cccc(Cl)c1 (stereo not shown) [Example 59] | 0.03 to 0.2
8 | O=c1c(NCC(F)(F)c2ccccn2)ncc(Cl)n1CCNCc1n[nH]c2ccc(Cl)cc12 [Example 74] | < 0.005
9 | O=c1c(NCC(F)(F)c2cccc[n+]2[O-])ncc(Cl)n1CCNCc1n[nH]c2ccc(Cl)cc12 [Example 82] | < 0.005
10 | O=c1c(NCC(F)(F)c2cccc[n+]2[O-])ncc(Cl)n1CCNCCc1cccc(Cl)c1 [Example 83] | < 0.005
11 | Cc1nc(N)ccc1CNCCn1c(Cl)cnc(NCC(F)(F)c2cccc[n+]2[O-])c1=O [Example 84] | 0.005 to 0.03
12 | O=c1c(NCCc2ccccn2)ncc(Cl)n1CCNCc1n[nH]c2ccc(Cl)cc12 [Example 92] | < 0.005
13 | NC(=O)CN1CCCCC1CCNc1ncc(Cl)n(CCNCc2n[nH]c3ccc(Cl)cc23)c1=O (stereo not shown) [Example 96, 2-{2-[2-(5-Chloro-4-{2-[(5-chloro-1H-indazol-3-ylmethyl)amino]-ethyl}-3-oxo-3,4-dihydro-pyrazin-2-ylamino)-ethyl]-piperidin-1-yl}-acetamide] | 0.005 to 0.03
14 | O=C(O)CN1CCCCC1CCNc1ncc(Cl)n(CCNCc2n[nH]c3ccc(Cl)cc23)c1=O (stereo not shown) [Example 97, {2-[2-(5-Chloro-4-{2-[(5-chloro-1H-indazol-3-ylmethyl)-amino]-ethyl}-3-oxo-3,4-dihydro-pyrazin-2-ylamino)-ethyl]-piperidin-1-yl}acetic acid] | < 0.005
15 | Cc1cnc(NCCc2ccccn2)c(=O)n1CCNCCc1nc2ccc(Cl)cc2[nH]1 [Example 99] | 0.03 to 0.2
16 | Cc1cnc(NCCC2CCCCN2)c(=O)n1CCNCc1cccc(Cl)c1 (stereo not shown) [Example 102] | 0.005 to 0.03
